Experimental data reported in PMC12474757, “Paving the way for future PSMA inhibitors: insights from comparative preclinical evaluations of structure modifications” (EJNMMI Radiopharmacy and Chemistry, 2025).
Values joined by “and” are separate entries in the source; they are usually repeats but may differ in a detail not shown here. Equal values may be shown once.

Tests used:
[1] = Radiochemical stability in physiological pH water environment; assay type: physicochemical; conditions: radiochemical purity, pH 7, 37 °C, n = 1
Procedure: Quality control, i.e. radiochemical purity, of the ^68Ga-labelled PSMA inhibitors was evaluated by analytical high performance liquid chromatography (HPLC; Dionex UltiMate 3000, Thermo Scientific, Waltham, Massachusetts, USA) using the following equipment: ACE 3 C18 column; 150 × 3 mm, 3 μm (Advanced Chromatography Technologies Ltd, Aberdeen, UK), with gradient elution A: H2O/acetonitrile (ACN); B:0.1% trifluoroacetic acid (TFA)/H2O: 0–3 min, 0% ACN; 3–10 min, 0 − 50% ACN; 10–13 min, 50 − 80% ACN; 13–15 min, 80–0% ACN, for 15 min at a flow rate of 1 mL/min. Radiometric detection was performed using a GABI Star radiodetector (Raytest GmbH, Straubenhardt, Germany) and for chromatogram quantification Chromatography Data System (CDS) - Chromeleon software (Thermo Scientific, USA) was used. The actual sample injection was performed using a Hamilton microinjector (Hamilton, USA).
Radiochemical stability in a physiological pH water environment was determined as follows: 100 µL of acetate buffer (1.1 mol/L) was added to the labelled preparation and the pH was then checked with a pH indicator paper to be 7. The mixture was further incubated at 37 °C and after 30, 60 and 120 min, 10 µL aliquot was used for HPLC analysis of radiochemical purity.

[2] = test system: LNCaP tumour-bearing mice; test: Ex vivo biodistribution in LNCaP tumour-bearing mice; parameters: species or system SCID mice
Procedure: The eight-week-old male SCID mice (Charles River, Massachusetts, USA) were used to generate the mouse tumour model. The implantation of 10 million LNCaP cells (ATCC, Virginia, USA) per mouse in a 1:1 mixture of Matrigel matrix (Corning, New York, USA) was performed subcutaneously behind the right shoulder of the mouse. Tumours of adequate size, representing a volume of 100–300 mm³, were observed after five to six weeks.
Ex vivo biodistribution of PSMA inhibitors in tumor-bearing mice was conducted as follows. Concisely, 30 µL of acetate buffer was added to the each ⁶⁸Ga -labelled inhibitor, namely: ⁶⁸Ga-P15, ⁶⁸Ga-P16, ⁶⁸Ga-P19, and ⁶⁸Ga-PSMA-617 to achieve physiological pH. Mice were r.o. injected with 100 µL of labelled inhibitor (2 MBq, approximately 0.5 µg of the inhibitor). Animals were divided into two groups for biodistribution studies at 1 and 2 h after administration of the respective ^68Ga-labelled PSMA inhibitor. The animals were sacrificed and autopsied after euthanasia, and organs: spleen, pancreas, stomach, intestine, kidney, liver, heart, lung, muscle, bone, and tumour were collected in scintillation vials. The vials containing the samples were weighed and measured in a Wizard2 gamma counter (PerkinElmer, USA). The measured values were then adjusted for radionuclide decay and expressed as a percentage of administered dose per gram of organ (%ID/g). The NanoScan® hybrid Positron Emission Tomography/Computed Tomography (PET/CT) machine (Mediso, Budapest, Hungary) was used for in vivo imaging specifically whole-body helical PET/CT scans. Imaging settings were: single field of view (FOV) PET scans (98.5 mm) which took 10 min for each mouse and helical CT scans (50 kVp/980 µA, 720 projections) both took place one hour after the administration. Each mouse received an injection of approximately 10 MBq of tested radiopharmaceutical. To prevent the mice’s eyes from drying out during anaesthesia eye ointment (Ophthalmo-Azulen, Zentiva, CR) was applied. Image reconstruction was performed using Mediso Tera-Tomo 3D PET iterative reconstruction (Mediso Medical Imaging Systems, Budapest, Hungary). Both reconstruction and data evaluation were performed in Mediso InterView FUSION software (Mediso Medical Imaging Systems, Budapest, Hungary) (Mediso, Budapest, Hungary). Final images were normalised to injected activity and animal weight. All organs with radiopharmaceutical accumulation were roughly delineated on the images, while their SUVmax value was recorded. The SUV41% (Standardized Uptake Value 41%) was then calculated as 41% of each SUVmax value of given hotspot and the ROI was delineated based on this value (Boellaard et al. [2015]). All images were exported in maximum intensity projection (MIP) mode. The results from the ex vivo biodistribution study were subjected to statistical analysis, namely unpaired Student’s t-test (Microsoft Excel 365, USA).

[3] = Octanol/water partition coefficient (log P); assay type: physicochemical; conditions: octanol/PBS; mean ± SD n = 6
Procedure: Octanol/water partition coefficient (P) was determined as described before (Petrik et al. [2012]). Briefly, 600 µL PBS was added to the total volume of the ⁶⁸Ga-P15. New tube was filled with 50 µL of the above-mentioned solution, 500 µL octanol and 450 µL PBS. Five more samples were prepared in this way and then placed on an orbital shaker for 20 min. The samples were then centrifuged at 15,000 rpm for 1 min. After centrifugation, two samples were taken from each tube, one from the octanol and the other from the aqueous phase. The radioactivity of these samples was measured using an automated gamma computer and the formula log P = log(Aoctanol/AH2O) was employed to calculate log P. The same procedure was applied when determining the partition coefficient of ⁶⁸Ga-P16, ⁶⁸Ga-P19, and ⁶⁸Ga-PSMA-617.

human plasma proteins = test: Binding to human plasma proteins; assay type: in vitro ADME; conditions: for Protein binding (%): human plasma, 37 °C, n = 2; for Binding rate to human plasma proteins: overall statement, incubation up to 120 min
Procedure: Binding to human plasma proteins was determined following this procedure: 10 µL of the ⁶⁸Ga-P15 with radioactivity of 45 kBq/100 µL was mixed with 190 µL of human plasma. The sample was then incubated at 37 °C. After 0, 30, 60 and 120 min 25 µL of the sample was collected, applied to the appropriate column and centrifuged at 2000 g for 2 minutes. The radioactivity of the samples was then measured using a gamma counter 2480 Wizard^2 (PerkinElmer, Waltham, MA, USA), and then the binding to plasma proteins was calculated using the following formula % plasma protein binding = (Aelution/Atotal)×100. The same procedure was applied when determining binding to plasma proteins of ⁶⁸Ga-P16, ⁶⁸Ga-P19, and ⁶⁸Ga-PSMA-617.

[4] = Stability in human plasma/serum (radiochemical purity by HPLC); assay type: in vitro ADME; conditions: 37 °C, incubation time 0 min, n = 1
[5] = one-hour p.i., mean ± SD, n = 4

Stability in Physiological pH (%) ([1]; incubation time 0 min)	Stability in Physiological pH (%) ([1]; incubation time 30 min)	Stability in Physiological pH (%) ([1]; incubation time 60 min)	Stability in Physiological pH (%) ([1]; incubation time 120 min)	tumour-to-muscle ratio of [68Ga]Ga-PSMA-617 relative to that of the inhibitor ([2]; one-hour p.i.)	Accumulation in the tumour ([2]; two-hours p.i., n = 4)	Log P [3]	Protein binding (%) (human plasma proteins; incubation time 0 min)	Protein binding (%) (human plasma proteins; incubation time 30 min)	Protein binding (%) (human plasma proteins; incubation time 60 min)	Protein binding (%) (human plasma proteins; incubation time 120 min)	Binding rate to human plasma proteins (human plasma proteins) [%]	Stability in human serum (%) [4] [%]	SMILES	also measured
99.0	98.8	98.7	99.2	~7.5 times	0.5%	–3,71 ± 0,14	26.7%	27.0%	29% and 29.4%	40% and 39.9%	≤ 40	99.0	O=C([O-])CN1CCN(CC(=O)[O-])CCN(CC(=O)N[C@H]2CC[C@H](NC(=O)[C@@H](Cc3ccc4ccccc4c3)NC(=O)CC[C@H](NC(=O)N[C@@H](CCC(=O)O)C(=O)O)C(=O)O)CC2)CCN(CC(=O)[O-])CC1.[68Ga+3] [[^68Ga]Ga-P15]	tumour-to-muscle ratio, fold lower than [68Ga]Ga-PSMA-617 ([2]; Fig. 5): more than 7 fold; tumour uptake, fold lower than [68Ga]Ga-P16 ([2]; one-hour p.i.): more than 5 fold; tumour uptake, fold lower than [68Ga]Ga-P16 ([2]; two-hours p.i.): up to 10 fold
99.3	99.1	99.3	99.3	more than twice		–3,07 ± 0,87	10% and 10.2%	10.9%	10.8%	13% and 13.4%	≤ 40	99.0	O=C([O-])CN1CCN(CC(=O)[O-])CCN(CC(=O)N[C@H]2CC[C@H](NC(=O)[C@H](Cc3ccc4ccccc4c3)NC(=O)CC[C@H](NC(=O)N[C@@H](CCC(=O)O)C(=O)O)C(=O)O)CC2)CCN(CC(=O)[O-])CC1.[68Ga+3] [[^68Ga]Ga-P16]	Accumulation in the spleen ([2]; one-hour p.i., n = 4): 7.7 % ID/g; Accumulation in the spleen ([2]; two-hours p.i., n = 4): 9.6 % ID/g
99.8	99.5	99.5	99.6	more than 1.6 times	2.0 % ID/g	–3,41 ± 0,13	56.6%	59% and 58.8%	58% and 57.7%	58% and 58.2%		99.0	O=C([O-])CN1CCN(CC(=O)[O-])CCN(CC(=O)NCc2ccc(C(=O)N[C@H](C(=O)NCCCC[C@H](NC(=O)N[C@@H](CCC(=O)O)C(=O)O)C(=O)O)C(c3ccccc3)c3ccccc3)cc2)CCN(CC(=O)[O-])CC1.[68Ga+3] [[^68Ga]Ga-P19]	tumour-to-blood ratio, times higher than [68Ga]Ga-PSMA-617 ([2]; one hour after administration): more than 1.5 times; level in the kidney, times lower compared to [68Ga]Ga-PSMA-617 ([2]; one hour after administration, p < 0.05): up to 7 times; tumour-to-blood ratio [2, 5]: 9.0 ± 2.3; tumour-to-kidney ratio [2, 5]: 0.85 ± 0.36; Accumulation in the tumour ([2]; one-hour p.i., n = 4): 3.5 % ID/g; tumour-to-kidney ratio ([2]; two hours post injection, mean ± SD, n = 4): 0.85 ± 0.02
